The term IC50 denotes the midpoint of a concentration-inhibition curve.

Like-named read-outs stand apart in the source and are kept apart here.

This is an account of results in US20230210984A1, “ADOPTIVE IMMUNOTHERAPY” (The Council of the Queensland Institute of Medical Research, priority 2019, published 2023).

Format in all cases: cell-based
For experiment [1], the system named is EBV-associated cell lines (nasopharyngeal and gastric cancer cell lines). As to the kind of experiment: MTS cell viability assay, IC50 of inhibitors. The following applies: for IC50: read-out: IC50 (~50% reduction in cell viability); for IC25 value (sub IC50 value): concentration chosen for in vitro combination treatment. Here is the method:
FIG. 9: Determining the IC50 value of MEK1/2 inhibitors. Representation of the cell viability performed using MTS assay after the indicated cell lines were incubated with 0.1 μM-5 μM of selumatinib (left panel) and trametinib (right panel) for 48 hours. The data are represented as the mean±SD from three independent experiments.
FIG. 14: Determining the IC50 value of JQ1 inhibitors. Representation of the cell viability performed using MTS assay after the indicated cell lines were incubated with 0.5 μM-10 μM of JQ1 for 48 hours. The data are represented as the mean±SD from three independent experiments.
Cell viability assay was performed using the CellTiter 96® AQueous one cell viability assay reagent (Promega, WI, USA) for three biological replicates per EBV-associated cancer cell lines in triplicate. Briefly, the cancer cells (target cells) were plated at a density of 5000 cells per well in an overall media volume of 200 μL on a 96-well tissue-culture plate (BD Falcon™). The effector AdE1-LMPpoly transfected T cells were freshly thawed in RPMI-1640 with 10% FCS and 120 IU/mL of recombinant IL-2 at 37° C. and […]. Post 24 hrs of plating and incubation at 37° C. and […], the effector T cells were mixed to the target cells at a gradient ratio of effector to target (E:T) of 5:1-100:1. The exact number of T cells (To) used per E:T ratio (ET) was independently used as control alongside PBS treated target cells (Es) and sole media (M0). After 24 hrs of incubation at 37° C. and […], MTS was added to each well (1:100 dilution in media) and was incubated for 1 hour following which the plate was centrifuged at 1,200×g at room temperature for 5 min and absorbance of the mixture at an optical density of 490 nm was measured via a microplate reader. The relative cell viability was calculated using the following formula: […]
To determine the upregulation of MAPK pathway in EBV-associated solid cancers, we first identified the IC50 value of MEK1/2 inhibitors (AZD6244 or selumetanib and trematinib) across nasopharyngeal and gastric cancer cell lines (with drug concertation ranging from 0.1 μM-5 μM). […] In the next set of experiments, we wanted to determine the impact of MEK1/2 inhibition in combination with allogeneic EBV-specific T cells on EBV-associated solid cancers. As such, we treated the respective EBV-associated cell lines (both gastric and nasopharyngeal) individually or in combination with MEK1/2 inhibitors (both selumetanib and trematinib) and EBV-specific T cells.
Similarly, we targeted MYC-dependent cancer intrinsic pathway using JQ1 inhibitor by first determining the IC50 value of the inhibitor across nasopharyngeal and gastric cancer cell lines (with drug concertation ranging from 0.5 μM-10 μM). […] To characterized the impact of JQ1 inhibition in combination with allogeneic EBV-specific T cells on EBV-associated cancer cells, we used IC25 value JQ1 (2.5 μM) alongside an effector to target ratio of 25:1 of the respective HLA matched allogeneic EBV-specific T cells in vitro. […] We also performed phenotypic characterization, using flow cytometry, of SNU719 and C666.1 cells after 16 hours of individual and dual treatment in vitro.
A general note: Tetrazolium dyes change colour on reduction, which living cells bring about.

The test system of experiment [2] is SNU719 cells. The experiment in a line: Annexin V binding assay, inhibitor combined with EBV-specific T cells. The following applies: combination with EBV-specific T cells (25:1) vs individual treatment, 48 hrs; AZD6244 0.5 μM, trematinib 1.0 μM, JQ1 5.0 μM.
Description: (§1) We treated SNU719 cells (gastric cancer cells) with MEK1/2 inhibitor (AZD6244 (or selumetanib) and trematinib) at concentration of 0.5 μM and 1.0 μM respectively, as individual treatment or in combination with EBV-specific T cells (25:1) as effector to target ratio.
We treated SNU719 cells with JQ1 inhibitor at concentration of 5.0 μM, as individual treatment or in combination with EBV-specific T cells (25:1) as effector to target ratio.
In experiment [3] the test system is SNU719 and C666.1 cells. As to the kind of experiment: Flow cytometry of cancer cell intrinsic pathways and immune regulatory molecules. To be noted: 16 hours, JQ1 2.5 μM; for MHC-Class I expression: inhibitor alone and in combination with HLA-matched T cells; for MHC-Class I expression / MYC expression / pERK1/2 expression / pSTAT3 expression: selumatinib 1 μM. Here is the method: FIG. 13: Phenotyping the impact of dual combination of MEK1/2 inhibitor and HLA matched allogeneic EBV specific T coils on cancer cell intrinsic pathways. Representation of the cancer cell phenotype after 16 hours of individual and dual combination of selumatinib (1 μM) and HLA-matched EBV specific T cells (effector-to-target ratio of 25:1) among SNU719 (upper panel) and C666.1 (lower panel) on the expression of (A) pERK1/2; (B) MHC-Class I; (C) pSTAT3; and (D) MYC performed using flow cytometry. The data are represented as the mean±SD from three independent experiments. P-values were calculated using one-way ANOVA: ns=not significant, *p<0.05, **p<0.01, ***p<0.001 and ****p<0.0001.
FIG. 17: Phenotyping the impact of dual combination of JQ1 inhibitor and MLA matched allogeneic EBV-specific T cells on cancer cell intrinsic pathways. Representation of the cancer cell phenotype after 16 hours of individual and dual combination of JQ1 (2.5 μM) and HLA-matched EBV specific T cells (effector-to-target ratio of 25:1) among SNU719 (upper panel) and C666.1 (lower panel) on the expression of (A) MYC; (B) pERK1/2; (C) pAKT; and (D) pSTAT3 performed using flow cytometry. The data are represented as the mean±SD from three independent experiments. P-values were calculated using one-way ANOVA: ns=not significant, *p<0.05, **p<0.01, ***p<0.001 and ****p<0.0001.
FIG. 18: Phenotyping the impact of dual combination of JQ1 inhibitor and HLA matched allogeneic EBV specific T cells on immune regulatory molecules. Representation of the cancer cell phenotype after 16 hours of individual and dual combination of JQ1 (2.5 μM) and HLA-matched EBV specific T cells (effector-to-target ratio of 25:1) among SNU719 (upper panel) and C666.1 (lower panel) on the expression of (A) MHC Class-I; (B) PD-L1; and (C) CD47 performed using flow cytometry. The data are represented as the mean±SD from three independent experiments. P-values were calculated using one-way ANOVA: ns=not significant, *p<0.05, **p<0.01, ***p<0.001 and ****p<0.0001.
In next set of experiments, we wanted to investigate the effect of the dual combination the cancer cell intrinsic pathway and describe the rationale of the effective combination of MEK1/2 inhibition with T cell treatment. […] As a result, we observed upregulation of MHC-Class I expression in presence of selumatinib alone and in combination with respective HLA-matched T cells (FIG. 13B). […] Thus, inhibition of MEK1/2 pathway results in upregulation of MHC-class I expression via upregulation of STAT3 pathway and downregulation of MYC which enabling better therapeutic compatibility in presence of HLA-matched allogeneic T cells.
Next, we wanted to determine the specificity of the combination and as such we challenged SNU719 and C666.1 cells with HLA-mismatch allogeneic T cells alongside JQ1 inhibitor individually and in combination. […] In next set of experiments, we wanted to investigate rationale of the effective combination of JQ1 inhibition with T cell treatment. […] As a result, it caused downregulation of pERK1/2, pAKT and pSTAT3 expression (FIG. 17B-C).
(In general: Flow cytometry measures light scatter and fluorescence of single cells or particles in a stream.)

In experiment [4] the test system is SNU719 cells. As to the kind of experiment: Xcellegence growth curve (Example 2). The following applies: dual combination with EBV-specific T cells vs individual treatment.
Description: P-values were calculated using one-way ANOVA: *p<0.05, **p<0.01, ***p<0.001 and ****p<0.0001.
as §1

For `Cc1sc2c(c1C)C(c1ccc(Cl)cc1)=N[C@@H](CC(=O)OC(C)(C)C)c1nnc(C)n1-2` [JQ1], the IC50 in experiment [1] (EBV-associated nasopharyngeal and gastric cancer cell lines, MTS assay, 48 hours, compared to NPC43 (EBV-)) is roughly 2500 nM. For the same compound, the “IC25 value (sub IC50 value)” value in experiment [1] was found to be 2.5 µM. In addition, the “binding of Annexin V among SNU719 cells” value in experiment [2] is reported as “significantly higher binding of Annexin V”. For the same compound, in experiment [3], the CD47 expression entry is on record as “downregulation”, the PD-L1 expression result was “downregulation”, the pAKT expression result is “downregulation” and the “MHC-Class I expression” value was “enhancing”. For the same compound, in experiment [3], the MYC expression result was “significant reduction”, the pERK1/2 expression entry was “downregulation” and the pSTAT3 expression entry is listed as “downregulation”.
Consider `Cn1cnc2c(F)c(Nc3ccc(Br)cc3Cl)c(C(=O)NOCCO)cc21` [selumetanib], for which the IC50 in experiment [1] (48 h) is roughly 2500 nM. In experiment [1], the “IC25 value (sub IC50 value)” value is 1 µM. Moreover, in experiment [2], the “binding of Annexin V among SNU719 cells” value is “significantly higher binding of Annexin V”. Further, in experiment [4], the “rate of cell death (Xcellegence)” value was “faster cell death”. Moreover, in experiment [3], the “MHC-Class I expression” value was “upregulation”, the MYC expression entry was “downregulation”, the pERK1/2 expression result was “significant reduction” and the pSTAT3 expression entry is given as “upregulation”.
